Results: PubChem BioAssay (NCI)
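Following 48 hours of exposure in 96-well plates, responses at five concentrations were used to interpolate endpoints linearly. GI50 is the concentration that inhibits growth by half. TGI marks complete inhibition of growth.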

What was measured:
Test in all cases: NCI tumour cell line growth inhibition, 48 h
A549 NSCLC = tested on: A549 NSCLC
ACHN renal = tested on: ACHN renal
786-0 renal = tested on: 786-0 renal
A498 renal = tested on: A498 renal
SF-268 CNS = tested on: SF-268 CNS
HCT-116 colon = tested on: HCT-116 colon
SNB-75 CNS = tested on: SNB-75 CNS
HT29 colon = tested on: HT29 colon
MCF7 breast = tested on: MCF7 breast
TK-10 renal = tested on: TK-10 renal
T-47D breast = tested on: T-47D breast
OVCAR-4 ovarian = tested on: OVCAR-4 ovarian
HOP-92 NSCLC = tested on: HOP-92 NSCLC
NCI-H460 lung = tested on: NCI-H460 lung
UACC-257 melanoma = tested on: UACC-257 melanoma
NCI/ADR-RES ovarian = tested on: NCI/ADR-RES ovarian
OVCAR-5 ovarian = tested on: OVCAR-5 ovarian
RXF 393 renal = tested on: RXF 393 renal
HCC-2998 colon = tested on: HCC-2998 colon
MDA-MB-435 = tested on: MDA-MB-435
HS 578T breast = tested on: HS 578T breast
HOP-62 NSCLC = tested on: HOP-62 NSCLC
UO-31 renal = tested on: UO-31 renal
PC-3 prostate = tested on: PC-3 prostate
SF-539 CNS = tested on: SF-539 CNS
SW-620 colon = tested on: SW-620 colon
NCI-H23 lung = tested on: NCI-H23 lung
MDA-MB-231 breast = tested on: MDA-MB-231 breast
SN12C renal = tested on: SN12C renal
OVCAR-8 ovarian = tested on: OVCAR-8 ovarian
U251 CNS = tested on: U251 CNS
SK-MEL-28 melanoma = tested on: SK-MEL-28 melanoma
BT-549 breast = tested on: BT-549 breast
SK-MEL-2 melanoma = tested on: SK-MEL-2 melanoma
NCI-H522 lung = tested on: NCI-H522 lung
RPMI-8226 leukemia = tested on: RPMI-8226 leukemia
MOLT-4 leukemia = tested on: MOLT-4 leukemia
SK-OV-3 ovarian = tested on: SK-OV-3 ovarian
HCT-15 colon = tested on: HCT-15 colon
K-562 leukemia = tested on: K-562 leukemia
HL-60(TB) leukemia = tested on: HL-60(TB) leukemia
SF-295 CNS = tested on: SF-295 CNS
UACC-62 melanoma = tested on: UACC-62 melanoma
LOX IMVI melanoma = tested on: LOX IMVI melanoma
SNB-19 CNS = tested on: SNB-19 CNS
KM12 colon = tested on: KM12 colon
MALME-3M melanoma = tested on: MALME-3M melanoma
CAKI-1 renal = tested on: CAKI-1 renal
SK-MEL-5 melanoma = tested on: SK-MEL-5 melanoma
COLO 205 colon = tested on: COLO 205 colon
EKVX NSCLC = tested on: EKVX NSCLC
DU-145 prostate = tested on: DU-145 prostate
CCRF-CEM leukemia = tested on: CCRF-CEM leukemia
OVCAR-3 ovarian = tested on: OVCAR-3 ovarian
M14 melanoma = tested on: M14 melanoma
IGROV1 ovarian = tested on: IGROV1 ovarian
SR leukemia = tested on: SR leukemia
NCI-H226 lung = tested on: NCI-H226 lung

For `N#C/C(=C\c1ccc(O)c(O)c1)C(=O)NCc1cccc(C(F)(F)F)c1`, the GI50 (A549 NSCLC) was 15.1 µM, the TGI (A549 NSCLC) was 90 µM and the GI50 (ACHN renal) was 5.53 µM. The TGI (ACHN renal) was 35.2 µM, the GI50 (786-0 renal) was 19 µM and the TGI (786-0 renal) was 45.5 µM. For the same molecule, the GI50 (A498 renal) was 10.4 µM, the TGI (A498 renal) was 26.9 µM and the GI50 (SF-268 CNS) was 13.7 µM. For the same molecule, the TGI (SF-268 CNS) was 42.1 µM, the GI50 (HCT-116 colon) was 3.79 µM and the TGI (HCT-116 colon) was 17.4 µM. The GI50 (SNB-75 CNS) was 13.6 µM, the TGI (SNB-75 CNS) was 59.2 µM and the GI50 (HT29 colon) was 22 µM. It also gave a TGI (HT29 colon) of 56.3 µM, a GI50 (MCF7 breast) of 19.8 µM and a TGI (MCF7 breast) of over 100 µM. The GI50 (TK-10 renal) was 1.31 µM, the TGI (TK-10 renal) was 6.43 µM and the GI50 (T-47D breast) was 13.3 µM. The TGI (T-47D breast) was 84.5 µM, the GI50 (OVCAR-4 ovarian) was 15.1 µM and the TGI (OVCAR-4 ovarian) was 74.4 µM. For the same molecule, the GI50 (HOP-92 NSCLC) was 3.2 µM, the TGI (HOP-92 NSCLC) was 26.8 µM and the GI50 (NCI-H460 lung) was 6.14 µM. The TGI (NCI-H460 lung) was 31 µM, the GI50 (UACC-257 melanoma) was 12.2 µM and the TGI (UACC-257 melanoma) was 52.5 µM. The GI50 (NCI/ADR-RES ovarian) was 10.1 µM, the TGI (NCI/ADR-RES ovarian) was 34.6 µM and the GI50 (OVCAR-5 ovarian) was 19.6 µM. For the same molecule, the TGI (OVCAR-5 ovarian) was 55 µM, the GI50 (RXF 393 renal) was 17.3 µM and the TGI (RXF 393 renal) was 84.5 µM. It also gave a GI50 (HCC-2998 colon) of 10.3 µM, a TGI (HCC-2998 colon) of 22.2 µM and a GI50 (MDA-MB-435) of 4.28 µM. For the same molecule, the TGI (MDA-MB-435) was 18 µM, the GI50 (HS 578T breast) was 12 µM and the TGI (HS 578T breast) was 47.3 µM. It also gave a GI50 (HOP-62 NSCLC) of 13.4 µM, a TGI (HOP-62 NSCLC) of 42.2 µM and a GI50 (UO-31 renal) of 11.8 µM. The TGI (UO-31 renal) was 73.9 µM, the GI50 (PC-3 prostate) was 19.7 µM and the TGI (PC-3 prostate) was over 100 µM. For the same molecule, the GI50 (SF-539 CNS) was 3.51 µM, the TGI (SF-539 CNS) was 17 µM and the GI50 (SW-620 colon) was 9.33 µM. It also gave a TGI (SW-620 colon) of 31.3 µM, a GI50 (NCI-H23 lung) of 12.2 µM and a TGI (NCI-H23 lung) of 31.5 µM. For the same molecule, the GI50 (MDA-MB-231 breast) was 5.82 µM, the TGI (MDA-MB-231 breast) was 29 µM and the GI50 (SN12C renal) was 11.3 µM. It also gave a TGI (SN12C renal) of 31.1 µM, a GI50 (OVCAR-8 ovarian) of 10.2 µM and a TGI (OVCAR-8 ovarian) of 62.2 µM. For the same molecule, the GI50 (U251 CNS) was 6.22 µM, the TGI (U251 CNS) was 38.4 µM and the GI50 (SK-MEL-28 melanoma) was 21.6 µM. It also gave a TGI (SK-MEL-28 melanoma) of 72.6 µM, a GI50 (BT-549 breast) of 5.99 µM and a TGI (BT-549 breast) of 34.4 µM. The GI50 (SK-MEL-2 melanoma) was 0.115 µM, the TGI (SK-MEL-2 melanoma) was 2.98 µM and the GI50 (NCI-H522 lung) was 7.71 µM. The TGI (NCI-H522 lung) was 63.2 µM, the GI50 (RPMI-8226 leukemia) was 10.2 µM and the TGI (RPMI-8226 leukemia) was over 100 µM. For the same molecule, the GI50 (MOLT-4 leukemia) was 5.65 µM, the TGI (MOLT-4 leukemia) was 41.2 µM and the GI50 (SK-OV-3 ovarian) was 24.1 µM. For the same molecule, the TGI (SK-OV-3 ovarian) was 75.6 µM, the GI50 (HCT-15 colon) was 3.64 µM and the TGI (HCT-15 colon) was 46.3 µM. It also gave a GI50 (K-562 leukemia) of 21.3 µM, a TGI (K-562 leukemia) of over 100 µM and a GI50 (HL-60(TB) leukemia) of 4.73 µM. The TGI (HL-60(TB) leukemia) was 92.3 µM, the GI50 (SF-295 CNS) was 1.97 µM and the TGI (SF-295 CNS) was 15.7 µM. For the same molecule, the GI50 (UACC-62 melanoma) was 10.2 µM, the TGI (UACC-62 melanoma) was 23.8 µM and the GI50 (LOX IMVI melanoma) was 11.4 µM. For the same molecule, the TGI (LOX IMVI melanoma) was 26.4 µM, the GI50 (SNB-19 CNS) was 19.4 µM and the TGI (SNB-19 CNS) was over 100 µM. For the same molecule, the GI50 (KM12 colon) was 4.04 µM, the TGI (KM12 colon) was 19.6 µM and the GI50 (MALME-3M melanoma) was 2.03 µM. The TGI (MALME-3M melanoma) was 25.2 µM, the GI50 (CAKI-1 renal) was 2.05 µM and the TGI (CAKI-1 renal) was 7.39 µM. It also gave a GI50 (SK-MEL-5 melanoma) of 5.29 µM, a TGI (SK-MEL-5 melanoma) of 19.3 µM and a GI50 (COLO 205 colon) of 24.4 µM. For the same molecule, the TGI (COLO 205 colon) was 76.6 µM, the GI50 (EKVX NSCLC) was 13.7 µM and the TGI (EKVX NSCLC) was 39.8 µM. It also gave a GI50 (DU-145 prostate) of 12.1 µM and a TGI (DU-145 prostate) of 50.9 µM.

`Cn1c(=O)oc2cc(C(O)CN3CCN(Cc4ccc5c(c4)OCO5)CC3)ccc21` (stereo not drawn) was tested, and the TGI (A549 NSCLC) was over 100 µM, the TGI (ACHN renal) was over 100 µM and the TGI (786-0 renal) was over 100 µM. For the same molecule, the TGI (A498 renal) was over 100 µM, the TGI (SF-268 CNS) was over 100 µM and the TGI (HCT-116 colon) was over 100 µM. It also gave a TGI (SNB-75 CNS) of over 100 µM, a TGI (HT29 colon) of over 100 µM and a TGI (CCRF-CEM leukemia) of over 100 µM. It also gave a TGI (MCF7 breast) of over 100 µM, a TGI (TK-10 renal) of over 100 µM and a TGI (T-47D breast) of over 100 µM. It also gave a TGI (OVCAR-4 ovarian) of over 100 µM, a TGI (HOP-92 NSCLC) of over 100 µM and a TGI (NCI-H460 lung) of over 100 µM. The TGI (UACC-257 melanoma) was over 100 µM, the TGI (OVCAR-3 ovarian) was over 100 µM and the TGI (NCI/ADR-RES ovarian) was over 100 µM. It also gave a TGI (OVCAR-5 ovarian) of over 100 µM, a TGI (RXF 393 renal) of over 100 µM and a TGI (HCC-2998 colon) of over 100 µM. It also gave a TGI (MDA-MB-435) of over 100 µM, a TGI (M14 melanoma) of over 100 µM and a TGI (HOP-62 NSCLC) of over 100 µM. For the same molecule, the TGI (UO-31 renal) was over 100 µM, the TGI (PC-3 prostate) was over 100 µM and the TGI (SF-539 CNS) was over 100 µM. It also gave a TGI (SW-620 colon) of over 100 µM, a TGI (IGROV1 ovarian) of over 100 µM and a TGI (NCI-H23 lung) of over 100 µM. For the same molecule, the TGI (SR leukemia) was over 100 µM, the TGI (MDA-MB-231 breast) was over 100 µM and the TGI (SN12C renal) was over 100 µM. The TGI (OVCAR-8 ovarian) was over 100 µM, the TGI (U251 CNS) was over 100 µM and the TGI (SK-MEL-28 melanoma) was over 100 µM. For the same molecule, the TGI (BT-549 breast) was over 100 µM, the TGI (NCI-H522 lung) was over 100 µM and the TGI (MOLT-4 leukemia) was over 100 µM. The TGI (SK-OV-3 ovarian) was over 100 µM, the TGI (HCT-15 colon) was over 100 µM and the TGI (NCI-H226 lung) was over 100 µM. It also gave a TGI (K-562 leukemia) of over 100 µM, a TGI (HL-60(TB) leukemia) of over 100 µM and a TGI (SF-295 CNS) of over 100 µM. It also gave a TGI (UACC-62 melanoma) of over 100 µM, a TGI (LOX IMVI melanoma) of over 100 µM and a TGI (SNB-19 CNS) of over 100 µM. The TGI (KM12 colon) was over 100 µM, the TGI (MALME-3M melanoma) was over 100 µM and the TGI (CAKI-1 renal) was over 100 µM. The TGI (COLO 205 colon) was over 100 µM, the TGI (EKVX NSCLC) was over 100 µM and the TGI (DU-145 prostate) was over 100 µM.
